Experimental data taken from PubChem BioAssay (NCI).
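Growth conditions: 96-well plates. Treatment: test compound, 48 hours, 5 concentrations. Analysis: linear interpolation between bracketing concentrations; unreached endpoints set to highest concentration. TGI is the concentration that stops growth completely.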

Legend:
Experiment in all cases: DTP human tumour cell line panel, 48 h
[1] = tested on: OVCAR-3 ovarian
[2] = tested on: KM20L2 colon
[3] = tested on: UACC-257 melanoma
[4] = tested on: K-562 leukemia
[5] = tested on: SF-539 CNS
[6] = tested on: A498 renal
[7] = tested on: SK-MEL-2 melanoma
[8] = tested on: MOLT-4 leukemia
[9] = tested on: HT29 colon
[10] = tested on: ACHN renal
[11] = tested on: M19-MEL melanoma
[12] = tested on: SR leukemia
[13] = tested on: SF-295 CNS
[14] = tested on: UACC-62 melanoma
[15] = tested on: UO-31 renal
[16] = tested on: SF-268 CNS
[17] = tested on: IGROV1 ovarian
[18] = tested on: HOP-92 NSCLC
[19] = tested on: TK-10 renal
[20] = tested on: SNB-78 CNS
[21] = tested on: SNB-75 CNS
[22] = tested on: OVCAR-8 ovarian
[23] = tested on: MALME-3M melanoma
[24] = tested on: U251 CNS
[25] = tested on: EKVX NSCLC
[26] = tested on: 786-0 renal
[27] = tested on: SK-MEL-28 melanoma
[28] = tested on: RPMI-8226 leukemia
[29] = tested on: A549 NSCLC
[30] = tested on: COLO 205 colon
[31] = tested on: HCT-15 colon
[32] = tested on: SK-MEL-5 melanoma
[33] = tested on: HCT-116 colon
[34] = tested on: OVCAR-5 ovarian
[35] = tested on: LOX IMVI melanoma
[36] = tested on: NCI-H226 lung
[37] = tested on: LXFL 529 NSCLC
[38] = tested on: NCI-H23 lung
[39] = tested on: HCC-2998 colon
[40] = tested on: NCI-H460 lung
[41] = tested on: DMS 114 small cell lung
[42] = tested on: HOP-18 NSCLC
[43] = tested on: CCRF-CEM leukemia
[44] = tested on: SN12C renal
[45] = tested on: OVCAR-4 ovarian
[46] = tested on: SK-OV-3 ovarian
[47] = tested on: HL-60(TB) leukemia
[48] = tested on: HOP-62 NSCLC
[49] = tested on: KM12 colon
[50] = tested on: SNB-19 CNS
[51] = tested on: XF 498 CNS
[52] = tested on: DLD-1 colon
[53] = tested on: M14 melanoma
[54] = tested on: RXF 393 renal
[55] = tested on: SW-620 colon
[56] = tested on: DMS 273 small cell lung
[57] = tested on: RXF-631 renal
[58] = tested on: NCI-H522 lung
[59] = tested on: CAKI-1 renal

SMILES: CCOC(=O)N1C2C=C(C)C(ON2C(=O)c2ccccc2)C2C(C)C(=O)N21 (configuration not stated)
- TGI [1]: > 100 µM
- TGI [2]: > 100 µM
- TGI [3]: > 100 µM
- TGI [4]: > 100 µM
- TGI [5]: > 100 µM
- TGI [6]: > 100 µM
- TGI [7]: > 100 µM
- TGI [8]: > 100 µM
- TGI [9]: > 100 µM
- TGI [10]: > 100 µM
- TGI [11]: > 100 µM
- TGI [12]: > 100 µM
- TGI [13]: > 100 µM
- TGI [14]: > 100 µM
- TGI [15]: > 100 µM
- TGI [16]: > 100 µM
- TGI [17]: > 100 µM
- TGI [18]: > 100 µM
- TGI [19]: > 100 µM
- TGI [20]: > 100 µM
- TGI [21]: > 100 µM
- TGI [22]: > 100 µM
- TGI [23]: > 100 µM
- TGI [24]: > 100 µM
- TGI [25]: > 100 µM
- TGI [26]: > 100 µM
- TGI [27]: > 100 µM
- TGI [28]: > 100 µM
- TGI [29]: > 100 µM
- TGI [30]: > 100 µM
- TGI [31]: > 100 µM
- TGI [32]: > 100 µM
- TGI [33]: > 100 µM
- TGI [34]: > 100 µM
- TGI [35]: > 100 µM
- TGI [36]: > 100 µM
- TGI [37]: > 100 µM
- TGI [38]: > 100 µM
- TGI [39]: > 100 µM
- TGI [40]: > 100 µM
- TGI [41]: > 100 µM
- TGI [42]: > 100 µM
- TGI [43]: > 100 µM
- TGI [44]: > 100 µM
- TGI [45]: > 100 µM
- TGI [46]: > 100 µM
- TGI [47]: > 100 µM
- TGI [48]: > 100 µM
- TGI [49]: > 100 µM
- TGI [50]: > 100 µM
- TGI [51]: > 100 µM
- TGI [52]: > 100 µM
- TGI [53]: > 100 µM
- TGI [54]: > 100 µM
- TGI [55]: > 100 µM
- TGI [56]: > 100 µM

SMILES: C=CCc1cc(-c2cc(CC=C)c(O)c(CNC)c2)cc(CNC)c1O
- TGI [1]: 27.9 µM
- TGI [2]: 30.8 µM
- TGI [3]: 29.9 µM
- TGI [4]: 27.3 µM
- TGI [6]: 34.6 µM
- TGI [7]: 32.9 µM
- TGI [8]: 31.1 µM
- TGI [9]: 29.1 µM
- TGI [10]: 31.7 µM
- TGI [57]: 28.8 µM
- TGI [11]: 27.2 µM
- TGI [13]: 31 µM
- TGI [14]: 31.9 µM
- TGI [15]: 25.8 µM
- TGI [16]: 33.3 µM
- TGI [17]: 32.7 µM
- TGI [18]: 23.3 µM
- TGI [19]: 32.1 µM
- TGI [20]: 40.8 µM
- TGI [21]: 24.3 µM
- TGI [22]: 32.5 µM
- TGI [23]: 33.6 µM
- TGI [24]: 28.4 µM
- TGI [26]: 29 µM
- TGI [27]: 34 µM
- TGI [58]: 28.3 µM
- TGI [28]: 50.6 µM
- TGI [29]: 33 µM
- TGI [30]: 33.5 µM
- TGI [31]: 30.2 µM
- TGI [32]: 29.7 µM
- TGI [33]: 28.1 µM
- TGI [35]: 27.2 µM
- TGI [36]: 31 µM
- TGI [37]: 28.5 µM
- TGI [38]: 29.6 µM
- TGI [39]: 30 µM
- TGI [40]: 30.1 µM
- TGI [41]: 30.4 µM
- TGI [43]: 57 µM
- TGI [44]: 31.3 µM
- TGI [45]: 30.4 µM
- TGI [47]: 35.2 µM
- TGI [48]: 33.4 µM
- TGI [49]: 30.2 µM
- TGI [50]: 26.1 µM
- TGI [51]: 30.3 µM
- TGI [52]: 29.3 µM
- TGI [53]: 30.5 µM
- TGI [55]: 31.7 µM

SMILES: CC(=O)Oc1cc(C)c2c(c1OC(C)=O)CC1(O2)[C@@H](C)CCC2[C@@]3(C)CC[C@H](OC(C)=O)C(C)(C)C3CC[C@]21C (some centres not stated)
- TGI [1]: 8.41 µM
- TGI [2]: 28.3 µM
- TGI [3]: 21.8 µM
- TGI [5]: 7.23 µM
- TGI [6]: 21.4 µM
- TGI [8]: 42.2 µM
- TGI [9]: 19.6 µM
- TGI [10]: 7.63 µM
- TGI [57]: 19.9 µM
- TGI [11]: 5.04 µM
- TGI [12]: 11.3 µM
- TGI [13]: 16.2 µM
- TGI [14]: 5.26 µM
- TGI [59]: 4.3 µM
- TGI [15]: 3.93 µM
- TGI [16]: 12.8 µM
- TGI [17]: 4.49 µM
- TGI [18]: 8.01 µM
- TGI [19]: 11.1 µM
- TGI [20]: 4.64 µM
- TGI [21]: 14.9 µM
- TGI [22]: 13.7 µM
- TGI [24]: 14.4 µM
- TGI [25]: 11.4 µM
- TGI [26]: 7.46 µM
- TGI [27]: 15.9 µM
- TGI [28]: > 100 µM
- TGI [29]: 33.2 µM
- TGI [30]: 3.15 µM
- TGI [31]: 13 µM
- TGI [32]: 10.7 µM
- TGI [33]: 13.3 µM
- TGI [34]: 17.4 µM
- TGI [35]: 14 µM
- TGI [36]: 25.6 µM
- TGI [37]: 16 µM
- TGI [38]: 11.5 µM
- TGI [39]: 19.2 µM
- TGI [40]: 10.8 µM
- TGI [41]: 4.49 µM
- TGI [42]: 6.81 µM
- TGI [44]: 11.8 µM
- TGI [46]: 25.5 µM
- TGI [48]: 8.3 µM
- TGI [49]: 18.2 µM
- TGI [50]: 29.8 µM
- TGI [52]: 15.1 µM
- TGI [53]: 18.7 µM
- TGI [54]: 2.84 µM
- TGI [55]: 12.3 µM
- TGI [56]: 4.46 µM
